# Assay results from US10406124B2, “Method of treatment of gynecological cancer with anti-RAGE antibodies” (Swansea University, priority 2014, dated 2019).
# Where two headings read alike, the source gives them in different places. Non-standard residues stand in square brackets, D forms with d. Residues, ends and D or L forms follow the SMILES beside them. *: point of attachment. Dolaproine = CO[C@@H]([C@@H]1CCCN1)[C@@H](C)C(=O)O; Dil = CC[C@H](C)[C@H](NC)[C@@H](CC(=O)O)OC; X1 = C[C@@H](N*)[C@@H](O)c1ccccc1; NMeV = CN[C@H](C(=O)O)C(C)C
# Tests used:
# Ishikawa cells = experiment: Cell viability / cytotoxicity of RAGE ADCs in Ishikawa endometrial cancer cells; assay type: cell-based; details: Homo sapiens, read-out: IC50 of drug alone
# Protocol: (§1) Endometrial (Ishikawa) or ovarian (TOV112D) cancer cells were cultured in 96-well plates and treated with an extended concentration range of MMAE, MMAF, RAGE MMAE or RAGE MMAF for 24 or 48 h. Data was analysed by non-linear regression and IC50 concentrations determined for each treatment.
# After treatment, cell viability in both cell lines (FIG. 13), and cell apoptosis in Ishikawa cells (caspase activation; FIG. 14) were determined by a fluorescence-based cell viability assay (Apotox Glo Triplex assay, Promega) according to the manufacturer's instructions. Data are presented as box plots showing the median (line), 25th and 75th percentiles (box) and 10th and 90th percentile (whiskers), n=4. Data were analysed by ANOVA and Dunnett's pairwise multiple comparison t-test. […]
# TOV112D cells = experiment: Cell viability / cytotoxicity of RAGE ADCs in TOV112D ovarian cancer cells; assay type: cell-based, human; details: 24 h, free cytotoxin
# Protocol: as §1
# Data are presented as box plots showing the median (line), 25th and 75th percentiles (box) and 10th and 90th percentile (whiskers), n=4. Data were analysed by ANOVA and Dunnett's pairwise multiple comparison t-test.
# The linkers used in Examples 3 & 4 were directly compared. […] After treatment, cell viability (FIG. 17) was determined by a fluorescence-based cell viability assay (Apotox Glo Triplex assay, Promega) according to the manufacturer's instructions. […] Data were analysed by ANOVA and Dunnett's pairwise multiple comparison t-test. […]
# Comparisons of the AA4, HG6 and DF6 ADCs to the SNIPER ADC were made within normal ovarian (HOSEpic) and ovarian cancer (TOV112D and SKOV3) cells, and normal endometrial (Healthy) and endometrial cancer (HEC1A, HEC1B and Ishikawa) cells. Cells were treated for 96 h with 5 μg/ml of each of the ADCs, and cell health monitored as previously described. […] Data are presented as mean (SEM), and were analysed by ANOVA and Dunnett's pairwise multiple comparison t-test.
# RAGE = RAGE protein expression by immunohistochemistry in endometrial biopsies of patients taking tamoxifen; assay type: in vivo, human
# Protocol: RAGE protein expression was measured by Immunohistochemistry in endometrial biopsies from patients diagnosed with endometrial hyperplasia, Type I or Type II endometrial cancer (EC), postmenopausal controls as well as breast cancer patients taking tamoxifen as part of their treatment that have developed, or not, endometrial cancer. 138 patients were grouped as follows: PM (n=25, median=0.2), Hyperplasia (n=21, median=5.5), type I EC (n=18, median=1.5), type II EC (n=17, median=2), TX no EC (n=19, median=4), type I EC plus TX (n=21, median=4) and type II EC plus TX (n=17, median=0.2).
# IHC samples were scored blind by three independent observers. Values shown are median IHC scores and statistical analysis was performed using a Mann-Whitney test *p<0.05, **p<0.01, ***p<0.001, compared to PM control.
Compound,IC50 (Ishikawa cells; 24 h),IC50 (Ishikawa cells; 48 h),IC50 of drug alone (TOV112D cells),"RAGE expression, median IHC score (RAGE; breast cancer patients taking tamoxifen, no endometrial cancer (TX no EC), n=19)",effect on endometrial RAGE expression (RAGE; endometrium from EC patients taking vs not taking tamoxifen),"RAGE expression, median IHC score (RAGE; type I EC plus TX, n=21)","RAGE expression, median IHC score (RAGE; type II EC plus TX, n=17)"
"CC[C@H](C)[C@@H]([C@@H](CC(=O)N1CCC[C@H]1[C@H](OC)[C@@H](C)C(=O)N[C@H](C)[C@@H](O)c1ccccc1)OC)N(C)C(=O)[C@@H](NC(=O)[C@@H](NC)C(C)C)C(C)C [MMAE, (S)—N-((3R,4S,5S)-1-((S)-2-((1R,2R)-3-(((1S,2R)-1-hydroxy-1-phenylpropan-2-yl)amino)-1-methoxy-2-methyl-3-oxopropyl)pyrrolidin-1-yl)-3-methoxy-5-methyl-1-oxoheptan-4-yl)-N,3-dimethyl-2-((S)-3-methyl-2-(methylamino)butanamido)butanamide] (H-[NMeV]V[Dil][Dolaproine]-X1)",1400 nM,460 nM,greater than the top concentration tested,,,,
"CC[C@H](C)[C@@H]([C@@H](CC(=O)N1CCC[C@H]1[C@H](OC)[C@@H](C)C(=O)N[C@@H](Cc1ccccc1)C(=O)O)OC)N(C)C(=O)[C@@H](NC(=O)[C@@H](NC)C(C)C)C(C)C [MMAF, (S)-2-((2R,3R)-3-((S)-1-((3R,4S,5S)-4-((S)—N,3-dimethyl-2-((S)-3-methyl-2-(methylamino)butanamido)butanamido)-3-methoxy-5-methylheptanoyl)pyrrolidin-2-yl)-3-methoxy-2-methylpropanamido)-3-phenylpropanoic acid] (H-[NMeV]V[Dil][Dolaproine]F-OH)",1300 nM,630 nM,greater than the top concentration tested,,,,
CC/C(=C(\c1ccccc1)c1ccc(OCCN(C)C)cc1)c1ccccc1 [tamoxifen],,,,4,upregulation of RAGE,4,0.2
